Test system: NBD1
Assay: Aggregation analysis using differential static light scattering (DSLS), thermal stability of NBD1
Assay type: binding, Human
Conditions: 100 μM compound; ΔTagg = Tagg minus average Tagg of DMSO control wells; NBD1 0.2 mg/ml
Description: Example 23. Aggregation Analysis Using Differential Static Light Scattering (DSLS)
Purified recombinant NBD1 was produced using previously described methods (A. Schmidt, J. L. Mendoza, P. J. Thomas (2011) Biochemical and Biophysical Approaches to Probe CFTR Structure (365-376) M. D. Amaral, K. Kunzelmann (eds.), Cystic Fibrosis, Methods in Molecular Biology 741, Springer Science+Business Media). The effect of test compounds on thermal stability of NBD1 was evaluated by differential static light scattering (DSLS) using the Harbinger Stargazer-384 instrument (Epiphyte Three, Toronto, Canada). Test compounds were dissolved and diluted to desired concentrations in 100% DMSO. The compounds or DMSO controls (100 nL) were stamped into wells of a […] low volume optical plate (Corning Inc., Corning, NY) using the Echo 555 acoustic liquid handler (Labcyte Inc., San Jose, CA).
NBD1 protein was diluted to 0.2 mg/ml in S200 buffer (50 mM Tris-HCl, 150 mM NaCl, 5 mM MgCl2, 2 mM ATP, 2 mM DTT, pH7.6) containing 1% glycerol. 10 μL of protein solution was aliquoted into the 384-well plate harboring the test compounds and 10 μL mineral oil was overlayed onto the protein solution, using the epMotion robotic liquid handler (Eppendorf North America, Hauppauge, NY). After placing into the Stargazer instrument, the plate was heated at 1° C. per minute to 70° C. Images were captured from 25° C. to 70° C. every 0.5° C. At the end of the experiment run, instrument software integrated image files and analyzed data automatically. A linear regression curve was generated for each well, representing the increase in light scattering over time. A temperature of aggregation (Tagg) was calculated based on the inflection point of the curve. To better compare data across experiments the average Tagg for DMSO control wells was calculated and subtracted from values for wells containing compounds to obtain a “ΔTagg” value. These ΔTagg values reflect stabilizing efficacy of the compounds.

Row | SMILES | DSLS NBD1/3D Human Stability delta-T (° C.) @ 100 (μM)
1 | O=C(O)CCc1cccc([C@@H]2NCCc3nc(-c4cc(Oc5c(F)cc6[nH]ccc6c5F)ccc4F)[nH]c32)c1F (single isomer, unassigned) [Example 4] | C (≤4° C.)
2 | CN1CCc2nc(-c3cc(Oc4c(F)cc5[nH]ccc5c4F)ccc3F)[nH]c2[C@H]1c1cccc(CCC(=O)O)c1F (single isomer, unassigned) [Example 5] | B (4-8° C.)
3 | CN1CCc2nc(-c3cc(Oc4c(F)cc5[nH]ccc5c4F)ccc3F)[nH]c2[C@@H]1c1cccc(CCC(=O)O)c1F (single isomer, unassigned) [Example 6] | A (T ≥ 8° C.)
4 | O=C(O)Cc1cccc(C2OCCc3[nH]c(-c4cc(Oc5c(F)cc6[nH]ccc6c5F)ccc4F)nc32)c1 (stereo not shown) [Example 2, 2-(3-(2-(5-((4,6-difluoro-1H-indol-5-yl)oxy)-2-fluorophenyl)-1,4,6,7-tetrahydropyrano[3,4-d]imidazol-4-yl)phenyl)acetic acid] | B (4-8° C.)
5 | CC(Cc1cccc(C2c3nc(-c4cc(Oc5c(F)cc6[nH]ccc6c5S(C)(=O)=O)ccc4F)[nH]c3CCN2C)c1F)C(=O)O (stereo not shown) [Example 7, 3-[2-fluoro-3-[2-[2-fluoro-5-[(6-fluoro-4-methylsulfonyl-1H-indol-5-yl)oxy]phenyl]-5-methyl-1,4,6,7-tetrahydroimidazo[4,5-c]pyridin-4-yl]phenyl]-2-methyl-propanoic acid] | A (T ≥ 8° C.)
6 | Cc1c(-c2cc(Oc3c(F)cc4[nH]ccc4c3F)ccc2F)nc2n1CCNC2c1cccc(CC(O)CO)c1F (stereo not shown) [Example 9, 3-[3-[2-[5-[(4,6-difluoro-1H-indol-5-yl)oxy]-2-fluoro-phenyl]-3-methyl-5,6,7,8-tetrahydroimidazo[1,2-a]pyrazin-8-yl]-2-fluoro-phenyl]propane-1,2-diol] | B (4-8° C.)
7 | CCOC(=O)C(C)Cc1cccc(C2NCCn3c2nc(-c2cc(Oc4c(F)cc5[nH]ccc5c4F)ccc2F)c3C)c1F (stereo not shown) [Example 10, ethyl 3-[3-[2-[5-[(4,6-difluoro-1H-indol-5-yl)oxy]-2-fluoro-phenyl]-3-methyl-5,6,7,8-tetrahydroimidazo[1,2-a]pyrazin-8-yl]-2-fluoro-phenyl]-2-methyl-propanoate] | C (≤4° C.)
8 | CCOC(=O)CCc1cccc(C2c3nc(-c4cc(Oc5c(F)cc6[nH]ccc6c5S(C)(=O)=O)ccc4F)[nH]c3CCN2C)c1F (stereo not shown) [Example 13, ethyl 3-[2-fluoro-3-[2-[2-fluoro-5-[(6-fluoro-4-methylsulfonyl-1H-indol-5-yl)oxy]phenyl]-5-methyl-1,4,6,7-tetrahydroimidazo[4,5-c]pyridin-4-yl]phenyl]propanoate] | B (4-8° C.)
9 | CN1CCc2[nH]c(-c3cc(Oc4c(F)cc5[nH]ccc5c4S(C)(=O)=O)ccc3F)nc2C1c1cccc(CCC(=O)O)c1F (stereo not shown) [Example 14, 3-[2-fluoro-3-[2-[2-fluoro-5-[(6-fluoro-4-methylsulfonyl-1H-indol-5-yl)oxy]phenyl]-5-methyl-1,4,6,7-tetrahydroimidazo[4,5-c]pyridin-4-yl]phenyl]propanoic acid] | A (T ≥ 8° C.)
10 | CCOC(=O)CCc1cccc(C2c3nc(-c4cc(Oc5c(F)cc6[nH]ccc6c5S(C)(=O)=O)ccc4F)[nH]c3CCN2CC(F)F)c1F (stereo not shown) [Example 15, ethyl 3-[3-[5-(2,2-difluoroethyl)-2-[2-fluoro-5-[(6-fluoro-4-methylsulfonyl-1H-indol-5-yl)oxy]phenyl]-1,4,6,7-tetrahydroimidazo[4,5-c]pyridin-4-yl]-2-fluoro-phenyl]propanoate] | C (≤4° C.)
11 | CS(=O)(=O)c1c(Oc2ccc(F)c(-c3nc4c([nH]3)CCN(CC(F)F)C4c3cccc(CCC(=O)O)c3F)c2)c(F)cc2[nH]ccc12 (stereo not shown) [Example 16, 3-[3-[5-(2,2-difluoroethyl)-2-[2-fluoro-5-[(6-fluoro-4-methylsulfonyl-1H-indol-5-yl)oxy]phenyl]-1,4,6,7-tetrahydroimidazo[4,5-c]pyridin-4-yl]-2-fluoro-phenyl]propanoic acid] | A (T ≥ 8° C.)
12 | CNC(=O)CCc1cccc(C2c3nc(-c4cc(Oc5c(F)cc6[nH]ccc6c5S(C)(=O)=O)ccc4F)[nH]c3CCN2CC(F)F)c1F (stereo not shown) [Example 17, 3-[3-[5-(2,2-difluoroethyl)-2-[2-fluoro-5-[(6-fluoro-4-methylsulfonyl-1H-indol-5-yl)oxy]phenyl]-1,4,6,7-tetrahydroimidazo[4,5-c]pyridin-4-yl]-2-fluoro-phenyl]-N-methyl-propanamide] | B (4-8° C.)
13 | CCOC(=O)CCc1ccc(C2c3nc(-c4cc(Oc5c(F)cc6[nH]ccc6c5S(C)(=O)=O)ccc4F)[nH]c3CCN2C)s1 (stereo not shown) [Example 18, ethyl 3-[5-[2-[2-fluoro-5-[(6-fluoro-4-methylsulfonyl-1H-indol-5-yl)oxy]phenyl]-5-methyl-1,4,6,7-tetrahydroimidazo[4,5-c]pyridin-4-yl]-2-thienyl]propanoate] | B (4-8° C.)
14 | CN1CCc2[nH]c(-c3cc(Oc4c(F)cc5[nH]ccc5c4S(C)(=O)=O)ccc3F)nc2C1c1ccc(CCC(=O)O)s1 (stereo not shown) [Example 19, 3-[5-[2-[2-fluoro-5-[(6-fluoro-4-methylsulfonyl-1H-indol-5-yl)oxy]phenyl]-5-methyl-1,4,6,7-tetrahydroimidazo[4,5-c]pyridin-4-yl]-2-thienyl]propanoic acid] | A (T ≥ 8° C.)
15 | CN1CCc2[nH]c(-c3cc(Oc4c(F)cc5[nH]ccc5c4F)ccc3F)nc2C1c1cccc(CC(O)CO)c1F (stereo not shown) [Example 20, 3-[3-[2-[5-[(4,6-difluoro-1H-indol-5-yl)oxy]-2-fluoro-phenyl]-5-methyl-1,4,6,7-tetrahydroimidazo[4,5-c]pyridin-4-yl]-2-fluoro-phenyl]propane-1,2-diol] | B (4-8° C.)
16 | CN1CCc2[nH]c(-c3cc(Oc4c(F)cc5[nH]ccc5c4S(C)(=O)=O)ccc3F)nc2C1c1cccc(CC(O)CO)c1F (stereo not shown) [Example 21, 3-[2-fluoro-3-[2-[2-fluoro-5-[(6-fluoro-4-methylsulfonyl-1H-indol-5-yl)oxy]phenyl]-5-methyl-1,4,6,7-tetrahydroimidazo[4,5-c]pyridin-4-yl]phenyl]propane-1,2-diol] | A (T ≥ 8° C.)

From patent US20260242388A1, “NBD1 MODULATORS AND METHODS OF USING THE SAME” (Sionna Therapeutics Inc., priority 2023, published 2026)
